Assay results as given in patent US20040034206A1, “Combination therapy for RNA virus infections involving ribavirin and IMPDH inhibitors” (priority 2002, published 2004).
Read-outs that look alike come from different tables or passages of the source.

How the values were obtained:
[1] = system: HCV subgenomic replicon (clone 16) in Huh-7 cells; assay type: cell-based, Hepatitis C Virus
From the text: We examined the mutagenic effect of ribavirin and other IMPDH inhibitors on HCV using the recently developed HCV replicon system. See German Patent No. DE19915178A1 to Bartenschlager, the disclosure of which is hereby incorporated by reference in its entirety. In the replicon system, an autonomously replicating clone of HCV comprising HCV 5′-NTR (NTR non translated region), NS3, NS4A, NS4B, NS5A, NS5B and a neomycin selectable marker gene that is linked to the HCV genes is inserted into human hepatoma cell line known as Huh-7 cells. The HCV-RNAs produced by the autonomously replicating clone of HCV in the Huh-7 cells are extracted and retransfected into naïve Huh-7 cells to evaluate the replication competence and efficiency of the HCV-RNA. Therefore, the effect of anti-viral treatments on the HCV-RNAs produced may be evaluated by growing the replicon cells in the presence or absence of such anti-viral treatments, then extracting the replicon RNA from treated cells and transfecting it into naive Huh 7 cells and measuring colony formation. The effect of the combination of ribavirin, and IMPDH inhibitors on HCV replication in vitro was evaluated using the replicon system as described below.
HCV Cell Culture System. Human hepatoma cell line Huh-7 cells were grown in Dulbecco's modified minimal essential medium (DMEM, Cellgro) supplemented with 10% fetal bovine serum, 4 mM L-glutamine, non-essential amino acids, 10 mM HEPES, 0.075% sodium bicarbonate, 100 U/ml penicillin and 100 ug/ml streptomycin, and 1 mM sodium pyruvate. HCV subgenomic replicon (clone 16, containing NS5A S1I791 adaptive mutation as described in Blight et al., Science 290:1972 (2000)) was constructed by Schering-Plough Research Institute as described by R. Bartenschlager. See Lohmann, et al., Science 285:5424 (2000). The replicon-bearing Huh-7 cells were maintained in the same media as described above with 0.5 mg/ml G418 (Geneticin, Gibco-BRL).
HCV RNA Replicon Copy Number measurement by Taqman assays. Replicon cells were seeded at 3000 cells per well in 96-well Bio-coated plates (Becton Dickinson) and allowed to adhere overnight. The next day the culture medium was replaced with 5% serum medium containing the experimental compound. After 72 hours the plate was harvested by aspirating medium, washing with PBS twice, and putting in […] cell lysis buffer (Ambion, catalog No. 8722). The plate was then heated at 75° C. for 5 min followed by freezing at −70° C. for 10 min. The cell lysate was then measured for HCV replicon copy number by one-step real-time RT-PCR (Taqman assay) using an ABI 7700 instrument. The primers, which correspond to HCV NS5B, are: forward, 5′-[…]-3′ (SEQ ID NO: 1), and reverse, 5′-[…]-3′ (SEQ ID NO: 2). The double fluorescence-labeled probe (5′-[…]-3′) (SEQ ID NO: 3) was purchased from Applied Biosystems (part No. P6448-6464). The cellular GAPDH (glyceraldehyde 3-phosphate dehydrogenase) mRNA from the same cell lysate was used as an internal control for cell number and metabolic status (primers/probes purchased from Perkin Elmer, part No. 4310859). Every experiment was performed in triplicate. The entire study was conducted independently two times.
Specific Colony Formation Efficiency (SCFE) determination. Replicon cells were loaded with compound(s) for 10 days under complete DMEM (without G418), with medium changes every 2-3 days. The total cytoplasmic RNA was extracted using RNA Easy kit from Qiagen (catalog No. 74104) and the RNA concentration was determined by absorbance at 260 nm. HCV replicon copy number in each RNA sample was determined by Taqman assay using a standard curve. For electroporation of RNA obtained from compound-treated replicon cells, 8 μg of total RNA suspended in 50 μl PBS was mixed with 50 μl suspension of 2×10^6 Huh-7 cells in a 0.1 cm cuvette (Bio-Rad, catalog No. 165-2089). As a control, wild type replicon RNA was serially diluted with total RNA from naïve Huh-7 cells.

[2] = human, in vivo; cited from earlier work
Hepatitis C Virus = settings: IFN-α monotherapy, chronic HCV infection, depending on genotype; cited from earlier work
[3] = target: inosine monophosphate dehydrogenase (IMPDH); settings: cited from J. Jain et al.; cited from earlier work

## COc1c(C)c2c(c(O)c1C/C=C(\C)CCC(=O)O)C(=O)OC2 [MPA, mycophenolic acid]
[1]; 2 μM MPA
  No. of Colonies: 470
  Replicon Copy No.: 9 copies X 10^7/8 μg total RNA
  SCFE (Specific Colony Formation Efficiency): 510 colonies/10^8 HCV RNA genomes

## NC(=O)c1ncn([C@@H]2O[C@H](CO)[C@@H](O)[C@H]2O)n1 [ribavirin, 1-beta-D-Ribofuranosyl-1H-1,2,4-triazole-3-carboxamide]
[2]
  patients with reduction in hemoglobin of greater than 4 g/dl: 15.7%
[1]; 10 μM ribavirin
  No. of Colonies: 650
  Replicon Copy No.: 14 copies X 10^7/8 μg total RNA
  SCFE (Specific Colony Formation Efficiency): 480 colonies/10^8 HCV RNA genomes
[1]; 50 μM ribavirin
  No. of Colonies: 420
  Replicon Copy No.: 12 copies X 10^7/8 μg total RNA
  SCFE (Specific Colony Formation Efficiency): 360 colonies/10^8 HCV RNA genomes
[1]; 100 μM ribavirin
  No. of Colonies: 110
  Replicon Copy No.: 6 copies X 10^7/8 μg total RNA
  SCFE (Specific Colony Formation Efficiency): 200 colonies/10^8 HCV RNA genomes
[1]; 100 μM ribavirin alone
  reduction in the fitness of the replicon (specific colony formation efficiency): ~4 fold

## interferon-alpha
Hepatitis C Virus
  response rate: about 25%

## Nc1nc2c(ncn2[C@@H]2O[C@H](CO)[C@@H](O)[C@H]2O)c(=O)[nH]1 [Guan., guanosine]
[1]; 10 μM Guan.
  No. of Colonies: 210
  Replicon Copy No.: 12 copies X 10^7/8 μg total RNA
  SCFE (Specific Colony Formation Efficiency): 180 colonies/10^8 HCV RNA genomes

## COc1cc(NC(=O)Nc2cccc(CNC(=O)O[C@H]3CCOC3)c2)ccc1-c1cnco1 [IMPDH-I, (S)-N-3-[3-(3-methoxy-4-oxazol-5-yl-phenyl)ureido]-benzylcarbamic acid tetrahydrofuran-3-yl-ester]
[3]
  Ki: ~10 nM
[1]; 100 nM IMPDH-I
  No. of Colonies: 370
  Replicon Copy No.: 10 copies X 10^7/8 μg total RNA
  SCFE (Specific Colony Formation Efficiency): 360 colonies/10^8 HCV RNA genomes
[1]; 100 nM IMPDH-I alone, Example 5
  effect on the replicon: only a marginal effect
